This test deals with T1, HIV-1 protease (Human immunodeficiency virus type 1 group M subtype B, UniProt P04585).
T1 construct: The protease (or proteinase), consisting of only 99 amino acids, is among the smallest enzymes known
Put plainly: In vitro HIV protease inhibitory assay (HIV Protease FITC Assay). The class given is biochemical. Conditions: for inhibition at 10 µM: HIV-1 Dose 10.000 uM; for inhibition at 100 µM: HIV-1 Dose 100.000 uM; for inhibition at 0.41 µM: HIV-1 Dose 0.410 uM; for inhibition at 1.23 µM: HIV-1 Dose 1.230 uM; for inhibition at 3.7 µM: HIV-1 Dose 3.700 uM; for inhibition at 11 µM: HIV-1 Dose 11.000 uM; for inhibition at 33 µM: HIV-1 Dose 33.000 uM; for Ki: read-out: HIV-1 FITC Ki; for inhibition at 0.123 µM: HIV-1 Dose 0.123 uM; for inhibition at 0.37 µM: HIV-1 Dose 0.370 uM; for inhibition at 1.1 µM: HIV-1 Dose 1.100 uM; for inhibition at 3.3 µM: HIV-1 Dose 3.300 uM; for inhibition at 30 µM: HIV-1 Dose 30.000 uM. In short, it runs like this: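 Percent inhibition was read as fluorescence after avidin-bead capture and filtration separated FITC cleavage product from biotinylated substrate. Enzyme and substrate reacted 1 h, RT, dark, at pH 5.5 (0.1 M sodium acetate, 1.0 M NaCl, 0.05% NP-40).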

Setting [1] is: read-out: HIV-1 Protease % Inhib.

Drawing on EP1203770A1 (priority 1992, dated 1994), this text covers inhibition and Ki for 20 compounds.

Turning to `CCCc1cc(O)c(C(c2ccccc2)C2CC2)c(=O)o1` (stereo not shown) [Example 104, 3-(Cyclopropyl-phenyl-methyl)-4-hydroxy-6-propyl-pyran-2-one], the inhibition at 1 µM (HIV-1 Dose 1.000 uM, read-out: HIV-1 Protease % Inhib) was determined as 50%. Under setting [1], the inhibition at 10 µM turned out to be 73.2% and the inhibition at 100 µM was 87.3%.

The term Ki denotes a dissociation constant, usually derived from enzyme kinetics or from competition with a known ligand. On to `CCC(c1ccccc1)c1c(O)c(Br)c(CCc2ccccc2)oc1=O` (stereo not shown) [Example 105, 5-Bromo-4-hydroxy-6-phenylethyl-3(1-phenyl-propyl)-pyran-2-one], for which the Ki is 458 nM. In addition, under setting [1], the inhibition at 0.41 µM amounted to 14.3%, the inhibition at 1.23 µM worked out at 38.9%, the inhibition at 3.7 µM amounted to 75.3% and the inhibition at 11 µM came to 103%. Also, under setting [1], the inhibition at 33 µM stood at 110% and the inhibition at 100 µM is 108%.

`CCC(CCOCCOC)c1cc(O)c(C(c2ccccc2)C2CC2)c(=O)o1` (stereo not shown) [Example 106, 3-(Cyclopropyl-phenyl-methyl)-6-(1-ethyl-3-(2-methoxy-ethoxy)-propyl)-4-hydroxy-pyran-2-one]: the Ki is 58 nM. Under setting [1], the inhibition at 0.41 µM is 57.4%, the inhibition at 1.23 µM was found to be 82.1%, the inhibition at 3.7 µM turned out to be 101% and the inhibition at 11 µM turned out to be 111%. For the same compound, under setting [1], the inhibition at 33 µM was 115% and the inhibition at 100 µM turned out to be 119%.

As for `COCCOCCC(Cc1ccccc1)c1cc(O)c(C(c2ccccc2)C2CC2)c(=O)o1` (stereo not shown) [Example 107, 6-(1-Benzyl-3-(2-methoxy-ethoxy)-propyl)-3-(cyclopropyl-phenyl-methyl)-4-hydroxy-pyran-2-one], the Ki came to 41 nM. Under setting [1], the inhibition at 0.41 µM was 50%, the inhibition at 1.23 µM came out at 80.3%, the inhibition at 3.7 µM came out at 100% and the inhibition at 11 µM is 103%. Moreover, under setting [1], the inhibition at 33 µM was 109% and the inhibition at 100 µM is 110%.

As for `COCCOCCOCCCc1cc(O)c(C(c2ccccc2)C2CC2)c(=O)o1` (stereo not shown) [Example 108], the Ki was found to be 607 nM. In addition, under setting [1], the inhibition at 0.41 µM is less than 10%, the inhibition at 1.23 µM turned out to be 20.4%, the inhibition at 3.7 µM came to 46.9% and the inhibition at 11 µM was found to be 76.7%. For the same compound, under setting [1], the inhibition at 33 µM amounted to 84.8% and the inhibition at 100 µM amounted to 118%.

For `CCCc1oc(=O)c(C(CC)c2ccccc2)c(O)c1Br` (stereo not shown) [Example 109, 5-Bromo-4-hydroxy-3-(1-phenyl-propyl)-6-propyl-pyran-2-one], the Ki is 203 nM. Further, under setting [1], the inhibition at 0.41 µM worked out at 22.2%, the inhibition at 1.23 µM came out at 51.8%, the inhibition at 3.7 µM is 78.9% and the inhibition at 11 µM came out at 106%. Besides, under setting [1], the inhibition at 33 µM came to 105% and the inhibition at 100 µM is 108%.

`CCC(CC)c1oc(=O)c(C(c2ccccc2)C2CC2)c(O)c1CCOCCOC` (stereo not shown) [Example 110, 3-(Cyclopropyl-phenyl-methyl)-6-(1-ethyl-propyl)-4-hydroxy-5-(2-(2-methoxy-ethoxy)ethyl)-pyran-2-one]: under setting [1], the inhibition at 0.41 µM is less than 10%, the inhibition at 1.23 µM was 16.1%, the inhibition at 3.7 µM was found to be 43.2% and the inhibition at 11 µM came out at 71.2%. Moreover, under setting [1], the inhibition at 33 µM was 88.6% and the inhibition at 100 µM is 84.3%.

As for `CCC(Cc1ccccc1)c1oc(=O)c(C(CC)c2ccccc2)c(O)c1Br` (stereo not shown) [Example 111, 6-(1-Benzyl-propyl)-5-bromo-4-hydroxy-3-(1-phenyl-propyl)-pyran-2-one], the Ki is 255 nM. Under setting [1], the inhibition at 0.41 µM is 41.7%, the inhibition at 1.23 µM was 66.2%, the inhibition at 3.7 µM stood at 92.2% and the inhibition at 11 µM is 103%. In addition, under setting [1], the inhibition at 33 µM came to 102% and the inhibition at 100 µM was determined as 109%.

Turning to `COCCOCCOCCc1c(C(CC2CC2)CC2CC2)oc(=O)c(C(c2ccccc2)C2CC2)c1O` (stereo not shown) [Example 112], under setting [1], the inhibition at 0.41 µM was less than 10%, the inhibition at 1.23 µM was less than 10%, the inhibition at 3.7 µM came out at 10.4% and the inhibition at 11 µM was found to be 18.9%. Further, under setting [1], the inhibition at 33 µM worked out at 37.1% and the inhibition at 100 µM was determined as 46.5%.

For `C=CC(C1=C(O)CC2(CCC3(CC2)OCCO3)OC1=O)c1ccccc1` (stereo not shown) [Example 113, 12-Hydroxy-11-(1-phenyl-allyl)-1,4,9-trioxa-dispiro[4.2.5.2]pentadec-11-en-10-one], the Ki came to 2560 nM. Besides, under setting [1], the inhibition at 0.41 µM is less than 10%, the inhibition at 1.23 µM was determined as 15.3%, the inhibition at 3.7 µM was found to be 42.8% and the inhibition at 11 µM was determined as 79.7%. Under setting [1], the inhibition at 33 µM was found to be 101% and the inhibition at 100 µM was 107%.

Take `CCC(C1=C(O)CC2(CCC3(CC2)OCCO3)OC1=O)c1ccccc1` (stereo not shown) [Example 114, 12-Hydroxy-11-(1-phenyl-propyl)-1,4,9-trioxa-dispiro[4.2.5.2]pentadec-11-en-10-one]: the inhibition constant Ki stood at 4290 nM. Moreover, under setting [1], the inhibition at 0.41 µM was less than 10%, the inhibition at 1.23 µM was less than 10%, the inhibition at 3.7 µM amounted to 25.8% and the inhibition at 11 µM was determined as 63.5%. Under setting [1], the inhibition at 33 µM was 67.5% and the inhibition at 100 µM amounted to 55.4%.

As for `CCC(C1=C(O)CC2(CCC(=O)CC2)OC1=O)c1ccccc1` (stereo not shown) [Example 115, 4-Hydroxy-3-(1-phenyl-propyl)-1-oxa-spiro[5.5]undec-3-ene-2,9-dione], the Ki was determined as 1160 nM. For the same compound, under setting [1], the inhibition at 0.41 µM was less than 10%, the inhibition at 1.23 µM worked out at 27.1%, the inhibition at 3.7 µM amounted to 56.9% and the inhibition at 11 µM turned out to be 91.5%. Besides, under setting [1], the inhibition at 33 µM stood at 103% and the inhibition at 100 µM stood at 94.8%.

Consider `CCC(C1=C(O)CC2(CCC(O)CC2)OC1=O)c1ccccc1` (stereo not shown) [Example 116, 4,9-Dihydroxy-3-(1-phenyl-propyl)-1-oxa-spiro[5.5]undec-3-en-2-one], for which, under setting [1], the inhibition at 0.123 µM was less than 10%, the inhibition at 0.37 µM was less than 10%, the inhibition at 1.1 µM was less than 10% and the inhibition at 3.3 µM amounted to 31.1%. Further, under setting [1], the inhibition at 10 µM was found to be 62% and the inhibition at 30 µM worked out at 89.9%.

On to `O=c1oc(CC(O)c2ccco2)cc(O)c1C(c1ccccc1)C1CC1` (stereo not shown) [Example 117, 3-(Cyclopropyl-phenyl-methyl)-6-(2-furan-2-yl-2-hydroxy-ethyl)-4-hydroxy-pyran-2], for which, under setting [1], the inhibition at 0.123 µM was less than 10%, the inhibition at 0.37 µM is less than 10%, the inhibition at 1.1 µM came to 17% and the inhibition at 3.3 µM stood at 51.2%. For the same compound, under setting [1], the inhibition at 10 µM was 87% and the inhibition at 30 µM was found to be 101%.

Take `O=c1oc(CCCC(F)(F)F)cc(O)c1C(c1ccccc1)C1CC1` (stereo not shown) [Example 118, 3-(Cyclopropyl-phenyl-methyl)-4-hydroxy-6-(4,4,4-trifluoro-butyl)-pyran-2-one]: under setting [1], the inhibition at 0.123 µM is less than 10%, the inhibition at 0.37 µM is less than 10%, the inhibition at 1.1 µM worked out at 20% and the inhibition at 3.3 µM was 52.4%. Under setting [1], the inhibition at 10 µM worked out at 83.9% and the inhibition at 30 µM was determined as 102%.

For `O=c1oc(CCc2nnnn2C2CCCCC2)cc(O)c1C(c1ccccc1)C1CC1` (stereo not shown) [Example 119, 6-[2-(1-Cyclohexyl-1H-tetrazol-5-yl)-ethyl]-3-(cyclopropyl-phenyl-methyl)-4-hydroxy-2-one], under setting [1], the inhibition at 0.123 µM was less than 10%, the inhibition at 0.37 µM was less than 10%, the inhibition at 1.1 µM is less than 10% and the inhibition at 3.3 µM was less than 10%. Moreover, under setting [1], the inhibition at 10 µM turned out to be 20.7% and the inhibition at 30 µM turned out to be 60.3%.

With `CCC(C1=C(O)CC(Cc2ccccc2)(Cc2ccccc2)OC1=O)c1ccccc1` (stereo not shown) [Example 120, 6,6-Dibenzyl-4-hydroxy-3-(1-phenyl-propyl)-5,6-dihydro-pyran-2-one], under setting [1], the inhibition at 0.123 µM is less than 10%, the inhibition at 0.37 µM is less than 10%, the inhibition at 1.1 µM worked out at 10.1% and the inhibition at 3.3 µM was 26.2%. Under setting [1], the inhibition at 10 µM stood at 46.4% and the inhibition at 30 µM is 60.1%.

For `C=CC(C1=C(O)CC2(CCOCC2)OC1=O)c1ccccc1` (stereo not shown) [Example 121, 4-Hydroxy-3-(1-phenyl-allyl)-1,9-dioxa-spiro[5.5]undec-3-en-2-one], under setting [1], the inhibition at 0.123 µM was less than 10%, the inhibition at 0.37 µM is less than 10%, the inhibition at 1.1 µM was less than 10% and the inhibition at 3.3 µM amounted to 10.8%. Further, under setting [1], the inhibition at 10 µM was determined as 40.2% and the inhibition at 30 µM came to 68.5%.

On to `Cc1cc(O)c(CC=Cc2ccccc2)c(=O)o1` [Example 122, 4-Hydroxy-6-methyl-3-(3-phenyl-prop-2-enyl)-2H-Pyran-2-one], for which, under setting [1], the inhibition at 100 µM worked out at 26%.

For the compound `CCC(C1=C(O)CC2(CCC(=O)CC2)OC1=NO)c1ccccc1` (stereo not shown) [Example 123, 4-Hydroxy-3-(1-phenyl-propyl)-1-oxa-spiro[5.5]undec-3-ene-2,9-dione monooxime], under setting [1], the inhibition at 0.123 µM is less than 10%, the inhibition at 0.37 µM is less than 10%, the inhibition at 1.1 µM is less than 10% and the inhibition at 3.3 µM turned out to be 14.8%. Under setting [1], the inhibition at 10 µM amounted to 39.6% and the inhibition at 30 µM was determined as 72%.
